Test results from patent US8236844B2, “Histidine derivatives” (Nippon Zoki Pharmaceutical Co., Ltd., priority 2006, dated 2012).

What was measured:
[1] = tested on: mice; assay: Test for analgesic effect (4): acetic acid writhing test; assay type: in vivo, mouse (ddY strain); conditions: writhing numbers during 10 minutes
Experimental: The compounds of the present invention were orally administered to mice and a test for an analgesic effect was carried out by means of an acetic acid writhing test. As to the test animals, male mice of ddY strain of four weeks age were subjected to a preliminary breeding and they were used where one group comprised ten mice. Each of the compound of the present invention as a test substance was orally administered (10 mg/kg, 100 mg/kg) in a single dose while, to a control group, distilled water (water for injection) was administered similarly. After 25 minutes from the administration of the test substance, a 0.7% acetic acid/physiological saline was intraperitoneally administered at the dose of 10 mL/kg. From 5 minutes thereafter, writhing numbers during 10 minutes were counted and a suppressive rate for each mouse was calculated according to the following formula. Suppressive Rate(%)=[(Mean writhing numbers of the control group)−(Writhing numbers of each mouse)]÷[Mean writhing numbers of the control group]×100

[2] = tested on: SART stressed mouse; assay: Test for analgesic effect (1): SART stressed mouse, modified Randall-Selitto tail pressure method; assay type: in vivo, mouse (ddY strain)
Experimental: Loading of SART (Specific Alternation of Rhythm in Temperature) stress or repetitive cold stress was conducted in accordance with a method of Kita, et al. (Nippon Yakurigaku Zasshi, Vol. 71, pages 195 to 210, 1975). In a constant-temperature vessel for breeding, a breeding environment temperature for male mice of ddY strain was alternately changed at 4° C. and 24° C. every one hour from 10 a.m. until 5 p.m. and kept at 4° C. from 5 p.m. to 10 a.m. of the next morning. Breeding was conducted for 5 days where water and feed were freely taken by the mice so as to load a repetitive cold stress and, after that, the mice were subjected to the test. Before and after 30 minutes from administration of the test substance, analgesic threshold value was measured by a modified Randall-Selitto method (Tail pressure method; Nippon Yakurigaku Zasshi, Vol. 72, pages 573 to 584, 1976). Thus, Using a Randall-Selitto analgesic effect measuring device where a pressing piece was modified for mouse tail, a pressure stimulation was applied at the rate of 16 g/second to the site which was 1.5 cm to the front end from tail root of the mouse and pressurized weight (g) showing an escaping or squeaking reaction was measured and adopted as a pain threshold value. […] A value (analgesic coefficient) where the pain threshold of the test substance administration group was divided by the pain threshold of the SART control group was calculated and the analgesic effect of the test substance was confirmed. Thus, when the test substance had no effect at all, said value was 1.0 and, as the effect became stronger, the value of the analgesic coefficient increased as 1.1, 1.2 and 1.3. Significant difference between the two groups was determined by a statistic processing of the pain threshold values and the analgesic coefficient was calculated as a mean value of the pain threshold values.
As to the test animals, male mice of ddY strain of four weeks age (one group comprised ten mice) were used. The compound of the present invention as a test substance was administered at a dose of 25 ng or 50 ng per mouse into the lateral ventricle whereupon its analgesic effect was measured.
Further, when the Compound 1 of the present invention was intraperitoneally administered (100 μg/kg), the pain threshold value in the SART control group was […] while, in the test substance administration group, it was 97.8 g (analgesic coefficient: 1.24) whereby a significant improving effect for hyperalgesia was noted.

[3] = tested on: Chung model rat; assay: Test for analgesic effect (2)/(3): Chung model rat, von Frey allodynia measurement; assay type: in vivo, rat (Wistar strain); conditions: for 50% reaction threshold value, Test substance administration group, Before admin.: baseline before intraperitoneal 400 μg/kg; for 50% reaction threshold value, Test substance administration group, After admin. for 30 minutes: intraperitoneal 400 μg/kg single dose, * P<0.05 Dunnett
Experimental: A test for analgesic effect was conducted using a Chung model rat which is a neuropathic pain model. As to the test animal, male rats of Wistar strain of nine weeks age were used and model rats were prepared in accordance with the method of Kim and Chung (Pain, vol. 50, pages 355 to 363, 1992). Thus, under anesthetization with pentobarbital (40 mg/kg, intraperitoneal administration), rat L5 spinal nerve was exposed and L5 dorsal root ganglion periphery side was strongly ligated using 5-0 silk yarn. The animals were placed in a transparent acrylate cage whose bottom was made of wire net, a 50% reaction threshold value was calculated by an up-down method using a von Frey filament (manufactured by North Coast Medical Inc.) according to the methods of Chaplan, et al. (J. Neurosci. Method, vol. 53, pages 55 to 63, 1994) and by Lee, et al. (J. Neurophysiol., vol. 81, pages 2226 to 2233, 1999) and measurement of allodynia was conducted. Before injury of spinal nerve, the 50% reaction threshold value was measured twice and the animals where the threshold value was outside the standard were excluded from the operation for spinal nerve injury. […] After 30 minutes from the administration of the test substance, allodynia was measured to calculate a 50% reaction threshold value. With regard to a significance test, Paired t-test was conducted for comparison between before and after the nerve injury and Dunnett's multiple comparison test was used for comparison among multiple groups of the nerve injury control group and the test substance administration group. […] After 30 minutes from administration of the test substance, measurement of allodynia was conducted to calculate the 50% reaction threshold value.

[4] = tested on: mice; assay: Single dose toxicity test by intraperitoneal administration to mice; assay type: in vivo, mouse (ddY strain); conditions: intraperitoneal 250, 500 and 1,000 mg/kg
Experimental: A single dose toxicity test by intraperitoneal administration of the compounds of the present invention to mice was carried out. Male mice of ddY strain of four weeks age were made into groups of five mice so as to make mean body weight in each group nearly the same. The Compound 1 of the present invention as a test substance was intraperitoneally administered at the doses of 250 mg/kg, 500 mg/kg and 1,000 mg/kg.

[5] = tested on: rats; assay: Hyperalgesia in osteoarthritis model induced by monoiodoacetic acid into joints of rats; assay type: in vivo, rat; conditions: oral administration of 1 mg/kg
[6] = tested on: rats; assay: Formalin pain test for rats, second phase; assay type: in vivo, rat; conditions: oral administration of 100 mg/kg
[7] = tested on: SART stressed mouse; assay: Test for analgesic effect (1): SART stressed mouse, modified Randall-Selitto tail pressure method; assay type: in vivo, mouse (ddY strain); conditions: oral administration, peak after 30 minutes
[8] = 25 ng per mouse into the lateral ventricle, 30 minutes after administration, pain threshold of test group / SART control group
[9] = 30 minutes after administration
[10] = 50 ng per mouse into the lateral ventricle, 30 minutes after administration, pain threshold of test group / SART control group

Structure (SMILES)	Suppressive Rate ([1]; oral 100 mg/kg single dose) [%]	Suppressive Rate ([1]; oral 10 mg/kg single dose) [%]	Analgesic coefficient [2, 8]	50% reaction threshold value, Test substance administration group, Before admin. [3] [g]	50% reaction threshold value, Test substance administration group, After admin. for 30 minutes [3, 9]	also measured
Cc1ccc(C=CC(=O)N[C@@H](Cc2cncn2C)C(=O)O)cc1 [Compound 16, N(α)-3-(4-methylphenyl)acryloyl-N(π)-methyl-L-histidine]	30.3	–	–	–	–	–
CC=C(C)C(=O)N[C@@H](Cc1cncn1CC)C(=O)O [Compound 11, N(α)-2-methyl-2-butenoyl-N(π)-ethyl-L-histidine]	–	36.1	–	–	–	–
CCn1cncc1C[C@H](NC(=O)C=Cc1ccccc1)C(=O)O [Compound 10, N(α)-3-phenylpropenoyl-N(π)-ethyl-L-histidine]	–	27.7	1.14	–	–	–
C=C(C)C(=O)N[C@@H](Cc1cncn1C)C(=O)O [Compound 30, N(α)-methacryl-N(π)-methyl-L-histidine]	–	–	–	2.63 ± 0.23	4.30 ± 0.46* g	–
C=CC(=O)N[C@@H](Cc1cncn1C(C)C)C(=O)O [Compound 13, N(α)-acryloyl-N(π)-isopropyl-L-histidine]	–	–	–	–	–	Analgesic coefficient [2, 10]: 1.31
CCn1cncc1C[C@H](NC(=O)C=C(C)C)C(=O)O [Compound 9, N(α)-3-methylcrotonoyl-N(π)-ethyl-L-histidine]	38.0	–	–	–	–	–
NCCC(=O)N[C@@H](Cc1cnc[nH]1)C(=O)O [carnosine, β-ananyl-L-histidine, reference compound]	–	–	–	–	–	analgesic action (in words) ([2]; administration into the lateral ventricle): no significant analgesic action
C=CC(=O)N[C@@H](Cc1cncn1C)C(=O)O [Compound 1, N(α)-acryloyl-N(π)-methyl-L-histidine]	53.8	33.1	1.33	–	–	Analgesic coefficient ([2]; intraperitoneal 100 μg/kg): 1.24; pain threshold value ([2]; intraperitoneal 100 μg/kg, test substance administration group): 97.8 g; changes in the body weight compared with the control group [4]: no significant difference; abnormal observation during the observation period ([4]; 14 days): no abnormal observation was noted; death ([4]; 14 days): no death case was noted; autopsied organs and tissues observed by naked eye ([4]; after 14 days): no abnormal case was found at all; analgesic effect on hyperalgesia (in words) [5]: significant analgesic effect; analgesic action against pain reaction in the second phase (in words) [6]: significant analgesic action; analgesic action (in words) ([7]; 3 and 10 mg/kg): significant analgesic action; ED50 value determined from the improving rate at peak of action [7]: 2.7 mg/kg; 50% reaction threshold value ([3]; intraperitoneal 100 μg/kg single dose, 30 minutes after administration): 9.60 g; anti-allodynia action (in words) ([3]; oral administration 10 mg/kg, peak after 30 minutes): significant anti-allodynia action; ED50 value determined from the improving rate at the peak of the action ([3]; oral administration, peak after 30 minutes): 2.4 mg/kg
CC=CC(=O)N[C@@H](Cc1cncn1CC)C(=O)O [Compound 4, N(α)-crotonoyl-N(π)-ethyl-L-histidine]	–	32.9	–	–	–	–
C=CC(=O)N[C@@H](Cc1cncn1Cc1ccccc1)C(=O)O [Compound 27, N(α)-acryloyl-N(π)-benzyl-L-histidine]	–	37.9	–	2.58 ± 0.26	7.32 ± 1.32* g	–
Cn1cncc1C[C@H](NC(=O)C=Cc1ccccc1)C(=O)O [Compound 6, N(α)-3-phenylpropenoyl-N(π)-methyl-L-histidine]	23.5	–	1.17	2.69 ± 0.33	6.43 ± 1.52* g	–
C=CC(=O)N[C@@H](Cc1cncn1CC)C(=O)O [Compound 2, N(α)-acryloyl-N(π)-ethyl-L-histidine]	27.6	–	–	2.69 ± 0.39	5.98 ± 0.52* g	Analgesic coefficient [2, 10]: 1.18
CC=CC(=O)N[C@@H](Cc1cncn1C)C(=O)O [Compound 3, N(α)-crotonoyl-N(π)-methyl-L-histidine]	–	–	1.23	–	–	–
CC=C(C)C(=O)N[C@@H](Cc1cncn1C)C(=O)O [Compound 7, N(α)-2-methyl-2-butenoyl-N(π)-methyl-L-histidine]	36.1	–	1.31	2.71 ± 0.24	9.88 ± 1.59* g	–
CC(C)=CC(=O)N[C@@H](Cc1cncn1C)C(=O)O [Compound 5, N(α)-3-methylcrotonoyl-N(π)-methyl-L-histidine]	–	17.8	–	–	–	–
